Where a name gives a salt, the structure may show the parent alone.

T1 sequence (Q9H244 whole entry): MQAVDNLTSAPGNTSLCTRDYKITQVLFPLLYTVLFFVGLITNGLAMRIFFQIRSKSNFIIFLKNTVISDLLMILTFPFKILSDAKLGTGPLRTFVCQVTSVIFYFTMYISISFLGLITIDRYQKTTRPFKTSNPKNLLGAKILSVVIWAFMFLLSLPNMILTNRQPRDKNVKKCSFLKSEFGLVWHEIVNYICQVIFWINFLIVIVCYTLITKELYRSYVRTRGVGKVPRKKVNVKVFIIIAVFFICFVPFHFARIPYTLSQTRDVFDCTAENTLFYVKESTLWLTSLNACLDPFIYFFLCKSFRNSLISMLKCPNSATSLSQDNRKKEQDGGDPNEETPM

The assay addresses T1, human P2Y12 receptor (Homo sapiens, UniProt Q9H244).
T1 construct: expressed in transfected cells; host or cells: Chinese Hamster Ovary (CHO) cells
The experiment in a line: P2Y12 receptor binding assay. The conditions noted are these: CHO cells with recombinant expression of the human P2Y12 receptor; tritium-labeled 2-methyl-S-ADP; 2 hours at room temperature. The protocol: Chinese Hamster Ovary (CHO) cells with recombinant expression of the human P2Y12 receptor were cultured in 24 well cell-culture plates. Cells were washed three times with binding buffer (50 mM Tris pH 7.4, 100 mM NaCl, 1 mM EDTA, 0.5% BSA). The cells were then incubated with 0.5 ml per well binding buffer containing tritium-labeled 2-methyl-thio-adenosine 5′-diphosphate (2-methyl-S-ADP) (between 100'000 and 300'000 dpm per well) and various concentrations of test compounds. After incubation at room temperature for 2 hours, cells were washed three times with binding buffer. Then, cells were solubilized by addition of 0.5 ml solubilization buffer (SDS, NaOH, EDTA). The content of each well was then transferred into beta-counter vials and 2.0 ml of Ultima Gold Scintillation liquid was added.
Turning to `CCCCOC(=O)N1CCN(C(=O)[C@H](CCC(=O)OC(C)(C)C)NC(=O)c2cc(OC3CCNCC3)nc(-c3ccccc3)n2)CC1` [Example 38, 4-((S)-4-tert-butoxycarbonyl-2-{[2-phenyl-6-(piperidin-4-yloxy)-pyrimidine-4-carbonyl]-amino}-butyryl)-piperazine-1-carboxylic acid butyl ester], the IC50 was 13000 nM.

As for `CCOC(=O)N1CCN(C(=O)[C@H](CCC(=O)O)NC(=O)c2cc(OC3CCOC3)nc(-c3ccccc3)n2)C(C)C1` (stereo partly drawn) [Example 10, ((S)-4-carboxy-2-{[2-phenyl-6-(tetrahydro-furan-3-yloxy)-pyrimidine-4-carbonyl]-amino}-butyryl)-3-methyl-piperazine-1-carboxylic acid ethyl ester], the half-inhibitory concentration (IC50) stood at 126 nM.

For the molecule `CCOC(=O)N1CCN(C(=O)[C@H](CCC(=O)O)NC(=O)c2cc(OC3CCCN(C)C3)nc(-c3ccccc3)n2)CC1` (stereo partly drawn) [Example 6, 4-((S)-4-carboxy-2-{[6-(1-methyl-piperidin-3-yloxy)-2-phenyl-pyrimidine-4-carbonyl]-amino}-butyryl)-piperazine-1-carboxylic acid ethyl ester trifluoroacetate salt], the half-maximal inhibitory concentration (IC50) is 238 nM.

Take `CCCCOC(=O)N1CCN(C(=O)[C@H](CCC(=O)O)NC(=O)c2cc(OC3CCNCC3)nc(-c3ccccc3)n2)CC1` [Example 37, 4-((S)-4-carboxy-2-{[2-phenyl-6-(piperidin-4-yloxy)-pyrimidine-4-carbonyl]-amino}-butyryl)-piperazine-1-carboxylic acid butyl ester]: the 50% inhibitory concentration (IC50) worked out at 71 nM.

For `CCOC(=O)N1CCN(C(=O)[C@H](CCc2nnn[nH]2)NC(=O)c2cc(OC3CCOC3)nc(-c3ccccc3)n2)CC1` (stereo partly drawn) [Example 17, 4-[(S)-2-{[2-phenyl-6-(tetrahydro-furan-3-yloxy)-pyrimidine-4-carbonyl]-amino}-4-(1H-tetrazol-5-yl)-butyryl]-piperazine-1-carboxylic acid ethyl ester], the half-inhibitory concentration (IC50) is 94 nM.

For `CCOC(=O)N1CCN(C(=O)[C@H](CCC(=O)O)NC(=O)c2cc(OCCOCCOC)nc(-c3ccccc3)n2)CC1` [Example 1, 4-[(S)-4-carboxy-2-({6-[2-(2-methoxy-ethoxy)-ethoxy]-2-phenyl-pyrimidine-4-carbonyl}-amino)-butyryl]-piperazine-1-carboxylic acid ethyl ester], the IC50 came to 108 nM.

For the molecule `CCCCOC(=O)N1CCN(C(=O)[C@H](CCC(=O)OC(C)(C)C)NC(=O)c2cc(O[C@@H]3CCOC3)nc(-c3ccccc3)n2)CC1` [Example 36, 4-[(S)-4-tert-butoxycarbonyl-2-({2-phenyl-6-[(R)-(tetrahydro-furan-3-yl)oxy]-pyrimidine-4-carbonyl}-amino)-butyryl]-piperazine-1-carboxylic acid butyl ester], the concentration for half-maximal inhibition (IC50) was determined as 448 nM.

The values are drawn from US8044055B2, “2-phenyl-6-aminocarbonyl-pyrimidine derivatives and their use as P2Y12 receptor” (Actelion Pharmaceuticals Ltd., priority 2006, dated 2011).
